# Test results reported in publication PMC1977344 (British Journal of Cancer, 1992).
# Read-outs that look alike come from different tables or passages of the source.
# Assays:
# [1] = biological target: T1, total mu (mu 1 and mu 2) receptor (Rattus norvegicus, UniProt P33535); experiment: Radioligand binding, total mu assay (3H-DAGO displacement, rat brain P2 homogenate); parameters: species or system Wistar rats; specific binding of the 3H-ligand remaining, total mu assay: dose or concentration left out as unconfirmed
# T1 construct: from tissue
# mu 2 receptor [2] = biological target: T2, mu 2 receptor (Rattus norvegicus, UniProt P33535); experiment: biochemical; conditions: IC50 mu 2 receptor
# delta receptor [3] = biological target: T3, delta receptor (Rattus norvegicus, UniProt P33533); experiment: Radioligand binding, delta assay (3H-DSLET displacement with DAGO block, rat brain P2 homogenate); parameters: species or system Wistar rats
# T3 construct: from tissue
# delta receptor [4] = test system: delta receptor; parameters: method as in Oguri et al. (1987); conditions: 3H-leucine enkephalin; ref Oguri et al. (1987); cited from earlier work
# mu 1 receptor = mu 1 receptor (Rattus norvegicus, UniProt P33535); experiment: Radioligand binding, mu 1 assay (3H-DSLET displacement with DPDPE block, rat brain P2 homogenate); parameters: species or system Wistar rats
# [5] = normal volunteers; ref Thompson et al., 1990; cited from earlier work
# mu 2 receptor [6] = biological target: T2, mu 2 receptor; conditions: for fold lower affinity of M6G than morphine at the mu 2 receptor (IC50 ratio): from mean IC50s; for specific binding of the 3H-ligand remaining, mu 2 assay: test substance at 5 µM (5 pM in methods)
# kappa receptor = test system: kappa receptor; parameters: method as in Pasternak et al., 1987; conditions: not yet accurately determined; ref Pasternak et al., 1987; cited from earlier work
# [7] = open study in man; ref Osborne et al., 1989; cited from earlier work
# [8] = cited from earlier work
# [9] = ref Shimomum et al. (1971); cited from earlier work
# [10] = test substance at 5 µM (5 pM in methods)
# T3 sequence (P33533 whole entry): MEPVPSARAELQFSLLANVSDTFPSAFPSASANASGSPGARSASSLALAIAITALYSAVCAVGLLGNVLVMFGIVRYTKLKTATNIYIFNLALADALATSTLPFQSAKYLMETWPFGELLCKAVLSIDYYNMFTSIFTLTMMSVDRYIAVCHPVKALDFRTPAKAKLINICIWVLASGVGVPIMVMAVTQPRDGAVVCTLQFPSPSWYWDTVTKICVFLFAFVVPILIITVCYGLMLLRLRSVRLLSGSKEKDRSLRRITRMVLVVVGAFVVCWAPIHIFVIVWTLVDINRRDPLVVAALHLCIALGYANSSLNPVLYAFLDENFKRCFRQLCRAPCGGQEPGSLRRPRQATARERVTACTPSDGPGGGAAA
# T1 sequence (P33535 whole entry): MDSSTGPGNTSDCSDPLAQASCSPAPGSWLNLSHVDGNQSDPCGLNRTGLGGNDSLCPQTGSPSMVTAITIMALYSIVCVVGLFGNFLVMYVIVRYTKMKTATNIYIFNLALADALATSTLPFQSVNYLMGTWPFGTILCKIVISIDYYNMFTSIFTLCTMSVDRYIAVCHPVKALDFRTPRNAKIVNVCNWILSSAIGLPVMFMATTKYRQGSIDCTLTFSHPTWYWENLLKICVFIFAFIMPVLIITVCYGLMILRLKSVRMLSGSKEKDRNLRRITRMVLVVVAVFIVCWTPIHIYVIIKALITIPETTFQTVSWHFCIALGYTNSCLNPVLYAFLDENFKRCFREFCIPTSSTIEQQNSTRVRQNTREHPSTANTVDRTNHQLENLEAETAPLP
# Chain of mu 1 receptor (P33535 whole entry): as above
# T2 sequence (P33535 whole entry): as above
structure (smiles),measurement,setting,value
"CN1CC[C@]23c4c5ccc(O)c4O[C@H]2[C@@H](O[C@@H]2O[C@H](C(=O)O)[C@@H](O)[C@H](O)[C@H]2O)C=C[C@H]3[C@H]1C5 [M6G, morphine 6-glucuronide]",IC50,[1],80 nM
same,IC50,"mu 2 receptor [2]; brain minus hypothalami, P2 fraction, 3H-DAGO 1.5 nM, DSLET 5 nM block, mean ± SEM",82 nM
same,IC50,"mu 2 receptor [2]; whole brain preparations, P2 fraction of whole rat brain homogenate, single assay",66 nM
same,IC50,delta receptor [3],75 nM
same,affinity for the delta receptor relative to morphine,delta receptor [4],slightly higher affinity
same,IC50,"mu 1 receptor; read-out: IC50 mu 1 receptor, whole brain preparations, P2 fraction of whole rat brain homogenate, single assay",170 nM
same,nausea and sedation versus morphine,[5],less nausea and no sedation
same,respiratory depression versus equipotent dose of morphine,[5],significantly less respiratory depression
same,fold lower affinity of M6G than morphine at the mu 2 receptor (IC50 ratio),mu 2 receptor [6],4.8 fold
same,fold lower affinity of M6G than morphine at the mu 2 receptor (IC50 ratio),mu 2 receptor [6]; listed as Morphine 6-glucuronide,4 fold
same,affinity for the kappa receptor,kappa receptor,thought to be low
same,nausea or sedation at doses sufficient to give significant pain relief,[7],no nausea or sedation was seen
same,systemic analgesic potency advantage over morphine,"[8]; systemic, ref Shimomura et al., 1971, Abbott & Palmour, 1988",3 fold
same,systemic LD50 relative to that of morphine,[9],88%
CN1CC[C@@]23CCCC[C@@H]2[C@@H]1Cc1ccc(O)cc13 [dextrorphan],"specific binding of the 3H-ligand remaining, total mu assay",[1],70%
same,"specific binding of the 3H-ligand remaining, delta assay",delta receptor [3]; [10],no inhibition was observed
same,"specific binding of the 3H-ligand remaining, mu 1 assay",mu 1 receptor; [10],no inhibition was observed
same,"specific binding of the 3H-ligand remaining, mu 2 assay",mu 2 receptor [6],72%
CN1CC[C@]23CCCC[C@H]2[C@H]1Cc1ccc(O)cc13 [levorphanol],"specific binding of the 3H-ligand remaining, total mu assay",[1],0%
same,"specific binding of the 3H-ligand remaining, delta assay",delta receptor [3],0%
same,"specific binding of the 3H-ligand remaining, mu 1 assay",mu 1 receptor,1%
same,"specific binding of the 3H-ligand remaining, mu 2 assay",mu 2 receptor [6],28%
"CN1CC[C@]23c4c5ccc(O[C@@H]6O[C@H](C(=O)O)[C@@H](O)[C@H](O)[C@H]6O)c4O[C@H]2[C@@H](O)C=C[C@H]3[C@H]1C5 [M3G, morphine 3-glucuronide]",analgesic activity,"[8]; ref Osborne et al., 1986, Hanks et al., 1987, Hoskin & Hanks, 1990",devoid of analgesic activity
